{"source": "patent US20240300945A1", "about": "“CLY SERIES COMPOUND, PREPARATION METHOD THEREFOR AND USE THEREOF IN PREPARATION OF DRUGS” (NANJING WELLBEST PHARMACEUTICAL CO., LTD, priority 2021, published 2024)", "tested_on": "rabbit ear acne model", "assay": "Rabbit ear acne model: macroscopic observation and histological grading", "type": "in vivo, New Zealand rabbits", "conditions": "right ear, 10 per group; for number of rabbits with acne histological grading 2+: Grade 2; for number of rabbits with acne histological grading —: Level 0, without acne; for number of rabbits with acne histological grading 1+: Level 1; for number of rabbits with acne histological grading 3+: Level 3", "text": "(1) Preparation method of treatment cream: The excipient matrix components included methyl silicone oil (15%), stearic acid (6%), white vaseline (5%), liquid paraffin (5%), octadecanol (5%), glycerin (20%), alkyl aryl polyglycol ether (1%), fatty alcohol polyoxyethylene ether (1%), […] (1%), ethyl paraben (0.1%), distilled water (about 31-55%), and mixed with appropriate amount of CLY series compounds to form a mixed emulsion. The emulsion matrix used in this embodiment refers to the matrix component after the active ingredient was removed from the emulsion.\n(2) Positive therapeutic drug: 0.1% adapalene gel (Trade name: Differin, produced by Laboratoires Galderma, France).\nNew Zealand rabbits were, according to weights, randomly divided into the model control group (applied cream matrix), positive treatment group (applied Differin on the skin), CLY-1 external treatment group (0.25% CLY-1 cream on the skin), CLY-2 external treatment group (0.25% CLY-2 cream on the skin), CLY-3 external treatment group (0.25% CLY-3 cream on the skin), CLY-4 external treatment group (0.25% CLY-4 cream on the skin) CLY-8 external treatment group (0.25% CLY-8 cream on the skin), CLY-9 external treatment group (0.25% CLY-9 cream on the skin), CLY-11 external treatment group (0.25% CLY-11 cream on the skin), CLY-19 external treatment group (0.25% CLY-19 cream on the skin), CLY-36 external treatment group (0.25% CLY-36 cream on the skin); CLY-1 intravenous injection group (1 mg/kg·d), CLY-2 intravenous injection group (1 mg/kg·d), CLY-3 intravenous injection group (1 mg/kg·d), CLY-4 intravenous injection group (1 mg/kg·d), CLY-8 intravenous injection group (1 mg/kg·d), CLY-9 intravenous injection group (1 mg/kg·d), CLY-11 intravenous injection group (1 mg/kg·d), CLY-19 intravenous injection group (1 mg/kg·d), and CLY-36 intravenous injection group (1 mg/kg·d), with 10 in each group. Took the inner side of the rabbit's right ear for depilation treatment as the observation area, and the inner side of the left ear of all rabbits as their own negative control, and applied 95% alcohol. The inner side of the right ear of the model group and the treatment group were both coated with 2% coal tar (Alfa Aesar China, which used 95% alcohol to prepare 2% coal tar solution), and evenly applied the sterile cotton swab to the opening of the ear duct on the inner side of the rabbit's ear within the range of about 2 cm×2 cm, once a day, 0.5 mL each time, and wiped the previous application site with warm water for 14 consecutive days to establish the acne micro-pigmentation model. Visually observed the changes of local skin, including ear thickness, hardness, roughness, and whether there was a black angle plug at the hair follicle mouth. 18 hours after the last application, the sample was sacrificed and skin was taken. The skin tissue was taken from the application site by using a 5 mm punch, fixed with 10% formaldehyde, embedded in paraffin, and stained with HE. The histopathological observation and analysis were carried out.\nThe histological grading criteria of the acne model: 3 grades according to histological grade. […] The tight keratin embolism in the hair follicles causes severe expansion of the hair follicles, obvious hyperplasia of the sebaceous duct epithelium, skin bulges and scars, and some sebaceous glands degenerate “3±”.\nSPSS16 software was used for statistical analysis. The paired t-test was used for the left and right self-contrast, and the t-test was used for the comparison between the groups, P<0.05 was statistically significant.", "key": {"[1]": {"conditions": "external use (0.25% CLY cream; positive: Differin)"}, "[2]": {"conditions": "intravenous injection 1 mg/kg·d"}}, "data": [{"compound": "CN1CCC[C@@H](N(C(=O)c2ccc(-n3nnc4cccnc43)cc2)c2ncccc2Cl)C1", "note": "[CLY-1, (R)-4-(3H-[1,2,3]triazolo[4,5-b]pyridin-3-yl)-N-(3-chloropyridin-2-yl)-N-(1-methylpiperidin-3-yl)benzamide]", "values": [{"measurement": "number of rabbits with acne histological grading 2+", "setting": "[1]", "value": 2}, {"measurement": "number of rabbits with acne histological grading 2+", "setting": "[2]", "value": 1}, {"measurement": "number of rabbits with acne histological grading —", "setting": "[1]", "value": 5}, {"measurement": "number of rabbits with acne histological grading —", "setting": "[2]", "value": 7}, {"measurement": "number of rabbits with acne histological grading 1+", "setting": "[1]", "value": 3}, {"measurement": "number of rabbits with acne histological grading 1+", "setting": "[2]", "value": 2}, {"measurement": "number of rabbits with acne histological grading 3+", "setting": "[1]", "value": 0}, {"measurement": "number of rabbits with acne histological grading 3+", "setting": "[2]", "value": 0}]}, {"compound": "CCN1CCC[C@@H](N(C(=O)c2ccc(-n3nnc4cccnc43)cc2)c2ncccc2Cl)C1", "note": "[CLY-2, (R)-4-(3H-[1,2,3]triazolo[4,5-b]pyridin-3-yl)-N-(3-chloropyridin-2-yl)-N-(1-ethylpiperidin-3-yl)benzamide]", "values": [{"measurement": "number of rabbits with acne histological grading 2+", "setting": "[1]", "value": 2}, {"measurement": "number of rabbits with acne histological grading 2+", "setting": "[2]", "value": 1}, {"measurement": "number of rabbits with acne histological grading —", "setting": "[1]", "value": 6}, {"measurement": "number of rabbits with acne histological grading —", "setting": "[2]", "value": 8}, {"measurement": "number of rabbits with acne histological grading 1+", "setting": "[1]", "value": 2}, {"measurement": "number of rabbits with acne histological grading 1+", "setting": "[2]", "value": 1}, {"measurement": "number of rabbits with acne histological grading 3+", "setting": "[1]", "value": 0}, {"measurement": "number of rabbits with acne histological grading 3+", "setting": "[2]", "value": 0}]}, {"compound": "CNC1CCCC(N(C(=O)c2ccc(-n3nnc4cccnc43)cc2)c2ncccc2Cl)C1", "note": "(stereo not drawn) [CLY-3]", "values": [{"measurement": "number of rabbits with acne histological grading 2+", "setting": "[1]", "value": 2}, {"measurement": "number of rabbits with acne histological grading 2+", "setting": "[2]", "value": 2}, {"measurement": "number of rabbits with acne histological grading —", "setting": "[1]", "value": 4}, {"measurement": "number of rabbits with acne histological grading —", "setting": "[2]", "value": 6}, {"measurement": "number of rabbits with acne histological grading 1+", "setting": "[1]", "value": 4}, {"measurement": "number of rabbits with acne histological grading 1+", "setting": "[2]", "value": 2}, {"measurement": "number of rabbits with acne histological grading 3+", "setting": "[1]", "value": 0}, {"measurement": "number of rabbits with acne histological grading 3+", "setting": "[2]", "value": 0}]}, {"compound": "O=C(c1ccc(-n2nnc3cccnc32)cc1)N(c1ncccc1Cl)C1CCCC(O)C1", "note": "(stereo not drawn) [CLY-4]", "values": [{"measurement": "number of rabbits with acne histological grading 2+", "setting": "[1]", "value": 2}, {"measurement": "number of rabbits with acne histological grading 2+", "setting": "[2]", "value": 2}, {"measurement": "number of rabbits with acne histological grading —", "setting": "[1]", "value": 3}, {"measurement": "number of rabbits with acne histological grading —", "setting": "[2]", "value": 5}, {"measurement": "number of rabbits with acne histological grading 1+", "setting": "[1]", "value": 5}, {"measurement": "number of rabbits with acne histological grading 1+", "setting": "[2]", "value": 3}, {"measurement": "number of rabbits with acne histological grading 3+", "setting": "[1]", "value": 0}, {"measurement": "number of rabbits with acne histological grading 3+", "setting": "[2]", "value": 0}]}, {"compound": "O=C(c1ccc(-n2nnc3cccnc32)cc1)N(c1ncccc1Cl)[C@@H]1CCNC1", "note": "[CLY-8, (R)-4-(3H-[1,2,3]triazolo[4,5-b]pyridin-3-yl)-N-(3-chloropyridin-2-yl)-N-(pyrrolidin-3-yl)benzamide]", "values": [{"measurement": "number of rabbits with acne histological grading 2+", "setting": "[1]", "value": 1}, {"measurement": "number of rabbits with acne histological grading 2+", "setting": "[2]", "value": 0}, {"measurement": "number of rabbits with acne histological grading —", "setting": "[1]", "value": 8}, {"measurement": "number of rabbits with acne histological grading —", "setting": "[2]", "value": 9}, {"measurement": "number of rabbits with acne histological grading 1+", "setting": "[1]", "value": 1}, {"measurement": "number of rabbits with acne histological grading 1+", "setting": "[2]", "value": 1}, {"measurement": "number of rabbits with acne histological grading 3+", "setting": "[1]", "value": 0}, {"measurement": "number of rabbits with acne histological grading 3+", "setting": "[2]", "value": 0}]}, {"compound": "NC1CCCC(N(C(=O)c2ccc(-n3nnc4cccnc43)cc2)c2ncccc2Cl)C1", "note": "(stereo not drawn) [CLY-11]", "values": [{"measurement": "number of rabbits with acne histological grading 2+", "setting": "[1]", "value": 2}, {"measurement": "number of rabbits with acne histological grading 2+", "setting": "[2]", "value": 1}, {"measurement": "number of rabbits with acne histological grading —", "setting": "[1]", "value": 5}, {"measurement": "number of rabbits with acne histological grading —", "setting": "[2]", "value": 7}, {"measurement": "number of rabbits with acne histological grading 1+", "setting": "[1]", "value": 3}, {"measurement": "number of rabbits with acne histological grading 1+", "setting": "[2]", "value": 2}, {"measurement": "number of rabbits with acne histological grading 3+", "setting": "[1]", "value": 0}, {"measurement": "number of rabbits with acne histological grading 3+", "setting": "[2]", "value": 0}]}, {"compound": "O=C(c1ccc(-c2ccccc2-c2nnn[nH]2)cc1)N(c1ncccc1Cl)[C@@H]1CCCNC1", "note": "[CLY-19]", "values": [{"measurement": "number of rabbits with acne histological grading 2+", "setting": "[1]", "value": 3}, {"measurement": "number of rabbits with acne histological grading 2+", "setting": "[2]", "value": 1}, {"measurement": "number of rabbits with acne histological grading —", "setting": "[1]", "value": 5}, {"measurement": "number of rabbits with acne histological grading —", "setting": "[2]", "value": 8}, {"measurement": "number of rabbits with acne histological grading 1+", "setting": "[1]", "value": 2}, {"measurement": "number of rabbits with acne histological grading 1+", "setting": "[2]", "value": 1}, {"measurement": "number of rabbits with acne histological grading 3+", "setting": "[1]", "value": 0}, {"measurement": "number of rabbits with acne histological grading 3+", "setting": "[2]", "value": 0}]}, {"compound": "O=C(c1ccc(-c2ccccc2Cl)cc1)N(c1ncccc1Cl)[C@@H]1CCCNC1", "note": "[CLY-36]", "values": [{"measurement": "number of rabbits with acne histological grading 2+", "setting": "[1]", "value": 4}, {"measurement": "number of rabbits with acne histological grading 2+", "setting": "[2]", "value": 2}, {"measurement": "number of rabbits with acne histological grading —", "setting": "[1]", "value": 5}, {"measurement": "number of rabbits with acne histological grading —", "setting": "[2]", "value": 7}, {"measurement": "number of rabbits with acne histological grading 1+", "setting": "[1]", "value": 1}, {"measurement": "number of rabbits with acne histological grading 1+", "setting": "[2]", "value": 1}, {"measurement": "number of rabbits with acne histological grading 3+", "setting": "[1]", "value": 0}, {"measurement": "number of rabbits with acne histological grading 3+", "setting": "[2]", "value": 0}]}, {"compound": "Nc1ccccc1-c1ccc(C(=O)N(c2ncccc2Cl)[C@@H]2CCCNC2)cc1", "note": "[CLY-39]", "values": [{"measurement": "number of rabbits with acne histological grading 2+", "setting": "[1]", "value": 1}, {"measurement": "number of rabbits with acne histological grading 2+", "setting": "[2]", "value": 1}, {"measurement": "number of rabbits with acne histological grading —", "setting": "[1]", "value": 6}, {"measurement": "number of rabbits with acne histological grading —", "setting": "[2]", "value": 7}, {"measurement": "number of rabbits with acne histological grading 1+", "setting": "[1]", "value": 3}, {"measurement": "number of rabbits with acne histological grading 1+", "setting": "[2]", "value": 2}, {"measurement": "number of rabbits with acne histological grading 3+", "setting": "[1]", "value": 0}, {"measurement": "number of rabbits with acne histological grading 3+", "setting": "[2]", "value": 0}]}]}
